Consider ten compounds from ChEMBL document CHEMBL1201862, “PubChem BioAssay data set” (2004).

Structures are written as SMILES.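 1) Cells in 96-well plates. 2) Compound, 48 h, 5 concentrations. 3) Linear interpolation between surrounding doses. 4) Unreached endpoint = highest concentration. GI50 marks 50% less growth.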 The source made the active and inactive calls. Cut-off read from the data, not from the text of the source: active = GI50 up to about 1.1 µM and inactive = higher.

Experiment in all cases: inhibition of tumour cell growth, NCI panel, 48 h
In experiment [1] the test system is HCT-116.
Experiment [2] deals with OVCAR-5.
Experiment [3] relates to NCI-H23.
Experiment [4] concerns ACHN.
The test system of experiment [5] is DU-145.
In experiment [6] the test system is Malme-3M.
For experiment [7], the system named is SF-268.
Experiment [8] deals with EKVX.
For experiment [9], the system named is SR.
The test system of experiment [10] is SK-MEL-2.
Experiment [11] relates to BT-549.
The test system of experiment [12] is HCT-15.
Experiment [13] concerns NCI/ADR-RES.
In experiment [14] the test system is SF-295.
Experiment [15] concerns MDA-MB-435.
Experiment [16] has as its system SF-539.
For experiment [17], the system named is RXF 393.
Experiment [18] deals with UACC-62.
Experiment [19] concerns OVCAR-8.
The test system of experiment [20] is MDA-N.

Regarding `O=C1CN2CCN(CC2)CC(=O)Nc2ccc(cc2)S(=O)(=O)c2ccc(cc2)NC(=O)CN2CCN(CC2)CC(=O)Nc2ccc(cc2)S(=O)(=O)c2ccc(cc2)N1`, the GI50 is 14.8 µM (inactive) in [1]; 37.3 µM (inactive) in experiment [2]; 44 µM (inactive) in experiment [3]; 66.4 µM (inactive) in experiment [4]; 51.6 µM (inactive) in experiment [5]; 15.8 µM (inactive) in [6]. Moreover, the GI50 was 19 µM (inactive) in [7]; > 100 µM (inactive) in experiment [8]; 4.56 µM (inactive) in experiment [9]; > 71.1 µM (inactive) in experiment [10]; 31.5 µM (inactive) in experiment [11]; 13.4 µM in experiment [12]. In addition, the GI50 in [13] was 37.3 µM (inactive); in [14] it was > 88.7 µM (inactive); in experiment [15], 35.2 µM (inactive); in experiment [16] it was 23.3 µM (inactive); in experiment [17], 55.2 µM (inactive); in experiment [18], 40.1 µM (inactive). In addition, the values for the GI50 in experiment [19] and in experiment [20] were 38.8 µM (inactive) and 41.8 µM (inactive), respectively.
For `CCCCCC(O)C(O)CCC[C@H](O)[C@H]1CC[C@H]([C@H]2CC[C@H]([C@H](O)CCCCCCCCCCCCC3=C[C@H](C)OC3=O)O2)O1` (some centres undefined), the GI50 in [1] was 1.36 µM (inactive); in experiment [2] it was 15.7 µM (inactive); in [3], 1.37 µM (inactive); in experiment [4], 1.59 µM (inactive); in [5], 9.18 µM (inactive); in experiment [6], 11.9 µM (inactive). The GI50 in [7] was 1.83 µM (inactive); in experiment [8] it was 2.62 µM (inactive); in experiment [9], 4.15 µM (inactive); in [10] it was 1.76 µM (inactive); in experiment [11], 8.93 µM (inactive); in [12], 3.81 µM. Also, the GI50 in experiment [13] was 0.853 µM (active); in experiment [14], 1.97 µM (inactive); in experiment [15], 1.5 µM (inactive); in [16] it was 5.7 µM (inactive); in experiment [17] it was 7.33 µM (inactive); in [18], 1.71 µM (inactive). Also, the figures for the GI50 in [19] and in [20] were 2.99 µM (inactive) and 2.83 µM (inactive), respectively.
As for `CCC(C)NC(=S)N/N=C(\C)c1nc2cccnc2[nH]1` (centres undefined), the GI50 in [1] is 6.05 µM (inactive); in [2], 13.4 µM (inactive); in experiment [3] it was 41.6 µM (inactive); in [4], 9.57 µM (inactive); in experiment [5] it was 16.9 µM (inactive); in experiment [6], 6.73 µM (inactive). Further, the GI50 was 8.36 µM (inactive) in experiment [7]; 6.73 µM (inactive) in [8]; 3.85 µM (inactive) in [9]; 5.92 µM (inactive) in experiment [10]; 13.5 µM (inactive) in experiment [11]; 5.64 µM in experiment [12]. For the same compound, the GI50 is 16.7 µM (inactive) in experiment [13]; 5.53 µM (inactive) in experiment [14]; 31.3 µM (inactive) in experiment [15]; 21.7 µM (inactive) in experiment [16]; 15.6 µM (inactive) in [17]; 6.11 µM (inactive) in experiment [18]. Also, the GI50 in [19] is 4 µM (inactive); in [20], 47.4 µM (inactive).
As for `C=CCOc1ccc2c(C)cc(=O)oc2c1C`, the GI50 is 40.5 µM (inactive) in experiment [1]; > 100 µM (inactive) in [2]; > 100 µM (inactive) in experiment [3]; 51.8 µM (inactive) in experiment [4]; > 100 µM (inactive) in experiment [5]; > 100 µM (inactive) in experiment [6]. Moreover, the GI50 in [7] is 55.3 µM (inactive); in experiment [8] it was 27.4 µM (inactive); in experiment [9], 37.8 µM (inactive); in [10], > 100 µM (inactive); in [11], 32 µM (inactive); in [12], 42.8 µM. In addition, the GI50 is 46.8 µM (inactive) in experiment [13]; 23.3 µM (inactive) in experiment [14]; 44.2 µM (inactive) in experiment [15]; 41.2 µM (inactive) in [16]; 23.1 µM (inactive) in [17]; 82.6 µM (inactive) in experiment [18]. The GI50 in experiment [19] is 56.8 µM (inactive); in experiment [20] it was 42 µM (inactive).
As for `CC(=O)N1CC[N+](C)(CCCCN2c3ccccc3Sc3cc(N=[N+]=[N-])ccc32)CC1`, the GI50 in experiment [1], in experiment [2], in [3], in experiment [4], in experiment [5] and in [6] was > 100 µM (inactive) each time. The GI50 in [7] was > 100 µM (inactive); in experiment [8], > 100 µM (inactive); in experiment [9], > 100 µM (inactive); in experiment [10] it was > 100 µM (inactive); in experiment [11], > 100 µM (inactive); in [12] it was greater than 100 µM. The GI50 in experiment [13], in experiment [14], in experiment [15], in experiment [16], in [17] and in [18] was > 100 µM (inactive) throughout. In addition, the GI50 in experiment [19] and in experiment [20] was > 100 µM (inactive) each time.
`Cc1ccc2c(=O)c3c(O)c4c(cc3n(C)c2c1)OC(C)(C)C=C4`: the GI50 in experiment [1], in [2], in experiment [3], in experiment [4], in experiment [5] and in experiment [6] was > 10 µM (inactive) throughout. The GI50 is > 10 µM (inactive) in [7]; > 10 µM (inactive) in [8]; > 10 µM (inactive) in experiment [9]; > 10 µM (inactive) in experiment [10]; > 10 µM (inactive) in experiment [11]; greater than 10 µM in experiment [12]. Further, the GI50 in [13], in [14], in experiment [15], in experiment [16], in experiment [17] and in experiment [18] was > 10 µM (inactive) each time. In addition, the GI50 in [19] and in [20] was > 10 µM (inactive) each time.
In the case of `COc1ccc(C(=O)c2ccc(-n3cc(/C=C/[N+](=O)[O-])c4ccccc43)cc2)cc1`, the GI50 is 10.6 µM (inactive) in experiment [1]; > 76.4 µM (inactive) in experiment [2]; 20.1 µM (inactive) in experiment [3]; 20.1 µM (inactive) in experiment [4]; 21.5 µM (inactive) in experiment [5]; 20.2 µM (inactive) in experiment [6]. The GI50 in [7] is 18 µM (inactive); in [8], 23.6 µM (inactive); in experiment [9], 8.81 µM (inactive); in experiment [10], 23.1 µM (inactive); in experiment [11] it was 15.5 µM (inactive); in [12], 7 µM. In addition, the GI50 in experiment [13] is 24.3 µM (inactive); in experiment [14], 47.9 µM (inactive); in [15], 16.2 µM (inactive); in [16], 14.7 µM (inactive); in experiment [17], 5.45 µM (inactive); in experiment [18], 14.4 µM (inactive). For the same compound, the values for the GI50 in experiment [19] and in experiment [20] were 20.3 µM (inactive) and 22.8 µM (inactive), respectively.
Consider `O=c1[nH]nc(-c2ccccc2)c2[nH]c3c(c12)Cc1ccccc1-3`, for which the GI50 in experiment [1] was 1.82 µM (inactive); in [2] it was 7.16 µM (inactive); in [3], > 26.5 µM (inactive); in experiment [4], 6.18 µM (inactive); in experiment [5], 10.4 µM (inactive); in experiment [6], 1.08 µM (active). The GI50 is 2.87 µM (inactive) in experiment [7]; 6.79 µM (inactive) in experiment [8]; 0.069 µM (active) in experiment [9]; 1.43 µM (inactive) in experiment [10]; 21.7 µM (inactive) in experiment [11]; 0.374 µM in experiment [12]. In addition, the GI50 in experiment [13] is 2.14 µM (inactive); in experiment [14] it was 1.97 µM (inactive); in experiment [15], 0.386 µM (active); in experiment [16], 2.34 µM (inactive); in experiment [17] it was 6.19 µM (inactive); in experiment [18], 0.299 µM (active). Further, the GI50 in experiment [19] was 6.61 µM (inactive); in experiment [20] it was 0.38 µM (active).
For `Cc1cc(C2(c3cc(C)c(O)c(C(=O)O)c3)OS(=O)(=O)c3ccccc32)cc(C(=O)O)c1O`, the GI50 in [1], in experiment [2], in experiment [4], in [5], in experiment [6] and in experiment [7] was > 100 µM (inactive) in each case. Besides, the GI50 in experiment [8] is > 100 µM (inactive); in experiment [9], > 100 µM (inactive); in experiment [10], > 100 µM (inactive); in [11], > 100 µM (inactive); in [12], greater than 100 µM; in experiment [13], > 100 µM (inactive). The GI50 in [14], in [15], in experiment [16], in experiment [17], in experiment [18] and in [19] was > 100 µM (inactive) throughout. Moreover, the GI50 in [20] was > 100 µM (inactive).
With `Cc1cc(NC(=O)NC(=O)c2ccccc2N(C)C)ccc1Oc1ncc(Br)cn1`, the GI50 is 0.439 µM (active) in experiment [1]; 8.11 µM (inactive) in [2]; 1.17 µM (inactive) in experiment [3]; 3.05 µM (inactive) in experiment [4]; 1.06 µM (active) in [5]; 0.425 µM (active) in experiment [6]. The GI50 was 0.977 µM (active) in [7]; 1.96 µM (inactive) in [8]; 0.0541 µM (active) in [9]; 0.733 µM (active) in [10]; 0.731 µM (active) in [11]; 0.202 µM in experiment [12]. For the same compound, the GI50 in experiment [13] was 0.361 µM (active); in [14], 0.224 µM (active); in experiment [15], 0.0424 µM (active); in experiment [16], 0.267 µM (active); in experiment [17] it was 0.656 µM (active); in experiment [18], 0.301 µM (active). Further, the GI50 is 1.1 µM (active) in [19] and 0.0302 µM (active) in experiment [20].
